Tests used:
mouse leukemia L-1210 [1] = experiment: Therapeutic effects on cancer in mice (life prolongation, mouse leukemia L-1210); type: in vivo; details: 6 consecutive days, male BDF1 mice; for Percent life pro-longation: 10^5 L-1210 cells i.p., T/C x 100; for Percent survival for 30 days: groups of four, L-1210
Procedure: Male BDF1 mice (5-wk old) in groups comprising four heads were inoculated intraperitoneally with 10^5 cells of mouse leukemia L-1210. Starting on the day of inoculation, a selected sample dissolved in a physiological saline solution was administered intraperitoneally to each animal for 6 consecutive days on a one-dose-per-day basis. After keeping the animals for 30 days, the life-prolongation effect of sample was determined form the following formula:
Life-prolongation effect = T/C x 100 = (Average number of days of survival of the treated group / Average number of days of survival of the control group) x 100.

mouse leukemia FL-4 = details: healing experiments, from Japanese Patent Public Disclosure No. 48975/1982; cited from earlier work
sarcoma 180 (S-180) = details: healing experiments, from Japanese Patent Public Disclosure No. 48975/1982; cited from earlier work
[2] = system: Gram-negative microorganisms; details: background statement; cited from earlier work
Ehrlich cancer = details: healing experiments, from Japanese Patent Public Disclosure No. 48975/1982; cited from earlier work
[3] = system: Gram-positive microorganisms; details: background statement; cited from earlier work
mouse leukemia L-1210 [4] = details: healing experiments, from Japanese Patent Public Disclosure No. 48975/1982; cited from earlier work
[5] = Dose 0.20 mg/kg/day intraperitoneally
[6] = Dose 0.39 mg/kg/day intraperitoneally
[7] = Dose 0.78 mg/kg/day intraperitoneally
[8] = Dose 1.56 mg/kg/day intraperitoneally
[9] = Dose 3.13 mg/kg/day intraperitoneally
[10] = Dose 6.25 mg/kg/day intraperitoneally
[11] = Dose 12.5 mg/kg/day intraperitoneally
[12] = Dose 25 mg/kg/day intraperitoneally
[13] = Dose 50 mg/kg/day intraperitoneally

| Compound | Percent life pro-longation (mouse leukemia L-1210 [1]; [5]) | Percent survival for 30 days (mouse leukemia L-1210 [1]; [5]) | Percent life pro-longation (mouse leukemia L-1210 [1]; [6]) | Percent survival for 30 days (mouse leukemia L-1210 [1]; [6]) | Percent life pro-longation (mouse leukemia L-1210 [1]; [7]) | Percent survival for 30 days (mouse leukemia L-1210 [1]; [7]) | Percent life pro-longation (mouse leukemia L-1210 [1]; [8]) | Percent survival for 30 days (mouse leukemia L-1210 [1]; [8]) | Percent life pro-longation (mouse leukemia L-1210 [1]; [9]) | Percent survival for 30 days (mouse leukemia L-1210 [1]; [9]) | Percent life pro-longation (mouse leukemia L-1210 [1]; [10]) | Percent survival for 30 days (mouse leukemia L-1210 [1]; [10]) | Percent life pro-longation (mouse leukemia L-1210 [1]; [11]) | Percent survival for 30 days (mouse leukemia L-1210 [1]; [11]) | Percent life pro-longation (mouse leukemia L-1210 [1]; [12]) | Percent survival for 30 days (mouse leukemia L-1210 [1]; [12]) | Percent life pro-longation (mouse leukemia L-1210 [1]; [13]) | Percent survival for 30 days (mouse leukemia L-1210 [1]; [13]) | further results |
| --- | --- | --- | --- | --- | --- | --- | --- | --- | --- | --- | --- | --- | --- | --- | --- | --- | --- | --- | --- |
| N=C(N)Nc1ccc(CCCC(=O)NC(O)C(=O)NCCCCNCCCN)cc1 (racemic) [Compound 1, 10-{N-[4-(4-guanidinophenyl)butanoyl]-α-hydroxyglycyl}-1,5,10-triazadecane] | 110% | 0/4 | 120% | 0/4 | 155% | 0/4 | 197% | 0/4 | > 335% | 2/4 | > 363% | 2/4 | > 401% | 3/4 | > 356% | 2/4 | 0% | 0/4 | – |
| COC(NC(=O)CCCc1ccc(NC(=N)N)cc1)C(=O)NCCCCNCCCN (racemic) [Compound 2, 10-{N-[4-(4-guanidinophenyl)butanoyl]-α-methoxyglycyl}-1,5,10-triazadecane] | 104% | 0/4 | 111% | 0/4 | 118% | 0/4 | 171% | 0/4 | > 368% | 3/4 | > 403% | 3/4 | > 417% | 4/4 | > 417% | 4/4 | 0% | 0/4 | – |
| N=C(N)NCCCC[C@H](O)CC(=O)NC(O)C(=O)NCCCCNCCCN (stereo partly drawn) [Spergualin] | – | – | – | – | – | – | – | – | – | – | – | – | – | – | – | – | – | – | therapeutic and life-prolonging effects (mouse leukemia FL-4): appreciable therapeutic and life-prolonging effects; therapeutic and life-prolonging effects (sarcoma 180 (S-180)): appreciable therapeutic and life-prolonging effects; effect of inhibiting the growth [2]: inhibiting the growth; therapeutic and life-prolonging effects (Ehrlich cancer): appreciable therapeutic and life-prolonging effects; effect of inhibiting the growth [3]: inhibiting the growth; therapeutic and life-prolonging effects (mouse leukemia L-1210 [4]): appreciable therapeutic and life-prolonging effects |
